Structures can show the parent of a compound that is named as a salt.
First: CC(C)(C)c1cccc2c1OC(CN)C2 (single isomer, unassigned; (-)) (as salt: hydrochloride) [Example 25, (−)-1-(7-tert-butyl-2,3-dihydro-1-benzofuran-2-yl)methanamine]
Second: CC(C)(C)CCc1cccc2c1OC(CN)C2 (racemic) (as salt: hydrochloride) [Example 118, (±)-1-[7-(3,3-dimethylbutyl)-2,3-dihydro-1-benzofuran-2-yl]methanamine]
The melting point of the first is higher: 178 to 180 °C for the first, 158 to 160 °C for the second.

First: NCC1Cc2cccc(-c3ccccc3C(F)(F)F)c2O1 (single isomer, unassigned; (+)) (as salt: hydrochloride) [Example 55, (+)-1-{7-[2-(trifluoromethyl)phenyl]-2,3-dihydro-1-benzofuran-2-yl}methanamine]
Second: Cc1ccccc1-c1cccc2c1OC(CN)C2 (single isomer, unassigned; (-)) (as salt: hydrochloride) [Example 49, (−)-1-[7-(2-methylphenyl)-2,3-dihydro-1-benzofuran-2-yl]methanamine]
The melting point of the first is lower: 97 to 100 °C for the first, 208 to 209 °C for the second.

First: NCC1Cc2cccc(-c3ccc(Cl)cc3Cl)c2O1 (single isomer, unassigned; (+)) (as salt: hydrochloride) [Example 150, (+)-1-[7-(2,4-dichlorophenyl)-2,3-dihydro-1-benzofuran-2-yl]methanamine]
Second: NCC1Cc2cccc(-c3cccc(Cl)c3)c2O1 (racemic) (as salt: hydrochloride) [Example 65, (±)-1-[7-(3-chlorophenyl)-2,3-dihydro-1-benzofuran-2-yl]methanamine]
The melting point of the first is higher: 201 to 204 °C for the first, 150 to 154 °C for the second.

First: NCC1Cc2cccc(-c3cc(Cl)cc(Cl)c3)c2O1 (racemic) (as salt: hydrochloride) [Example 35, (±)-1-[7-(3,5-dichlorophenyl)-2,3-dihydro-1-benzofuran-2-yl]methanamine]
Second: NCC1Cc2cccc(-c3ccc(Cl)cc3Cl)c2O1 (single isomer, unassigned; (-)) (as salt: hydrochloride) [Example 149, (−)-1-[7-(2,4-dichlorophenyl)-2,3-dihydro-1-benzofuran-2-yl]methanamine]
The melting point of the first is lower: 165 to 168 °C for the first, 203 to 206 °C for the second.

Compared with `Cc1cccc(-c2cc(Cl)cc3c2OC(CN)C3)c1` (racemic) (as salt: hydrochloride) [Example 88, (±)-1-[5-chloro-7-(3-methylphenyl)-2,3-dihydro-1-benzofuran-2-yl]methanamine], `Cc1ccccc1-c1cc(F)cc2c1OC(CN)C2` (racemic) (as salt: hydrochloride) [Example 104, (±)-1-[5-fluoro-7-(2-methylphenyl)-2,3-dihydro-1-benzofuran-2-yl]methanamine] is lower in melting point: 268 to 271 °C for the first, 229 to 234 °C for the second.

First: Cc1ccccc1-c1c(Cl)ccc2c1OC(CN)C2 (racemic) (as salt: hydrochloride) [Example 399, (±)-{[6-chloro-7-(2-methylphenyl)-2,3-dihydro-1-benzofuran-2-yl]methyl}amine]
Second: NCC1Cc2ccc(Cl)c(-c3ccccc3Cl)c2O1 (racemic) (as salt: hydrochloride) [Example 400, (±)-{[6-chloro-7-(2-chlorophenyl)-2,3-dihydro-1-benzofuran-2-yl]methyl}amine]
The melting point of the first is lower: 204 to 206 °C for the first, 221 to 223 °C for the second.

First: NCC1Cc2cccc(-c3cccc4ccccc34)c2O1 (racemic) (as salt: hydrochloride) [Example 33, (±)-1-[7-(1-naphthyl)-2,3-dihydro-1-benzofuran-2-yl]methanamine]
Second: NCC1Cc2cccc(-c3ccc4ccccc4c3)c2O1 (racemic) (as salt: hydrochloride) [Example 39, (±)-1-[7-(2-naphthyl)-2,3-dihydro-1-benzofuran-2-yl]methanamine]
The melting point of the first is lower: 120 to 124 °C for the first, 135 to 140 °C for the second.

Compared with `Cc1cccc(C)c1-c1cccc2c1OC(CN)C2` (single isomer, unassigned; (-)) (as salt: hydrochloride) [Example 57, (−)-1-[7-(2,6-dimethylphenyl)-2,3-dihydro-1-benzofuran-2-yl]methanamine], `CC(C)c1ccccc1-c1cccc2c1OC(CN)C2` (racemic) (as salt: hydrochloride) [Example 61, (±)-[7-(2-isopropylphenyl)-2,3-dihydro-1-benzofuran-2-yl]methylamine] is lower in melting point: 244 to 247 °C for the first, 202 to 204 °C for the second.

First: COc1ccc(-c2cccc3c2OC(CN)C3)c(OC)c1 (racemic) (as salt: hydrochloride) [Example 143, (±)-1-[7-(2,4-dimethoxyphenyl)-2,3-dihydro-1-benzofuran-2-yl]methanamine]
Second: COc1ccc(-c2cccc3c2OC(CN)C3)cc1 (single isomer, unassigned; (+)) (as salt: hydrochloride) [Example 80, (+)-1-[7-(4-methoxyphenyl)-2,3-dihydro-1-benzofuran-2-yl]methanamine]
The melting point of the first is lower: 175 to 178 °C for the first, 183 to 186 °C for the second.

First: NCC1Cc2cccc(-c3ccccc3C(F)(F)F)c2O1 (racemic) (as salt: hydrochloride) [Example 53, (±)-1-{7-[2-(trifluoromethyl)phenyl]-2,3-dihydro-1-benzofuran-2-yl}methanamine]
Second: NCC1Cc2cccc(-c3ccc(Cl)cc3)c2O1 (single isomer, unassigned; (+)) (as salt: hydrobromid) [Example 77, (+)-1-[7-(4-chlorophenyl)-2,3-dihydro-1-benzofuran-2-yl]methanamine]
The melting point of the first is lower: 204 to 205 °C for the first, 229 to 231 °C for the second.

First: Cc1ccccc1-c1ccc(F)c2c1OC(CN)C2 (racemic) (as salt: hydrochloride) [Example 99, (±)-1-[4-fluoro-7-(2-methylphenyl)-2,3-dihydro-1-benzofuran-2-yl]methanamine]
Second: Cc1ccccc1-c1cccc2c1CC(CN)O2 (racemic) (as salt: hydrochloride) [Example 4, (±)-1-[4-(2-methylphenyl)-2,3-dihydro-1-benzofuran-2-yl]methanamine]
The melting point of the first is lower: 228 to 231 °C for the first, 231 to 234 °C for the second.

Compared with `CN(C)C[C@H]1Cc2cc(F)cc(-c3c(Cl)cccc3Cl)c2O1` (as salt: hydrochloride) [Example 547, (R)-[7-(2,6-dichloro-phenyl)-5-Fluoro-2,3-dihydro-benzofuran-2-ylmethyl]dimethylamine], `CCNCC1Cc2cccc(-c3c(Cl)cccc3Cl)c2O1` (racemic) (as salt: hydrochloride) [Example 390, (±)-N-{[7-(2,6-dichlorophenyl)-2,3-dihydro-1-benzofuran-2-yl]methyl}ethanamine] is higher in melting point: 156 to 158 °C for the first, 195 to 197 °C for the second.

First: CNCC1Cc2cc(Cl)cc(C3CCCCC3)c2O1 (racemic) (as salt: hydrochloride) [Example 12, (±)-N-[(5-chloro-7-cyclohexyl-2,3-dihydro-1-benzofuran-2-yl)methyl]-N-methylamine]
Second: CC1(CN)Cc2cc(Cl)cc(-c3cccs3)c2O1 (racemic) (as salt: hydrochloride) [Example 114, (±)-(5-chloro-2-methyl-7-thien-2-yl-2,3-dihydro-1-benzofuran-2-yl)methylamine]
The melting point of the first is lower: 125 to 128 °C for the first, 251 to 252 °C for the second.

First: CC(C)(C)/C=C/c1cccc2c1OC(CN)C2 (racemic) (as salt: hydrochloride) [Example 117, (±)-1-{7-[(1E)-3,3-dimethylbut-1-enyl]-2,3-dihydro-1-benzofuran-2-yl}methanamine]
Second: COc1cccc2c1OC(CN)C2 (racemic) (as salt: hydrochloride) [Example 7, (±)-1-(7-methoxy-2,3-dihydro-1-benzofuran-2-yl)methanamine]
The melting point of the first is higher: 216 to 218 °C for the first, 168 to 171 °C for the second.

First: Cc1ccccc1-c1cccc2c1CC(CN)O2 (single isomer, unassigned; (+)) (as salt: hydrobromid) [Example 5, (+)-1-[4-(2-methylphenyl)-2,3-dihydro-1-benzofuran-2-yl]methanamine]
Second: COc1ccc(-c2cccc3c2OC(CN)C3)cc1 (racemic) (as salt: hydrochloride) [Example 79, (±)-1-[7-(4-methoxyphenyl)-2,3-dihydro-1-benzofuran-2-yl]methanamine]
The melting point of the first is higher: 232 to 233 °C for the first, 176 to 178 °C for the second.

In the case of `NCC1Cc2cccc(-c3ccc(C(F)(F)F)cc3)c2O1` (racemic) (as salt: hydrochloride) [Example 82, (±)-1 {7-[4-(trifluoromethyl)phenyl]-2,3-dihydro-1-benzofuran-2-yl}methanamine], the melting point is reported as greater than 250 °C.
`Cc1cccc(C)c1-c1cccc2c1CC(CN)O2` (single isomer, unassigned; (+)) (as salt: hydrochloride) [Example 126, (+)-1-[4-(2,6-dimethylphenyl)-2,3-dihydro-1-benzofuran-2-yl]methanamine] gave a melting point greater than 250 °C.
In the case of `NCC1Cc2cc(F)cc(-c3ccccc3F)c2O1` (racemic) (as salt: hydrochloride) [Example 107, (±)-1-[5-fluoro-7-(2-fluorophenyl)-2,3-dihydro-1-benzofuran-2-yl]methanamine], the melting point is reported as 240 to 247 °C (dec.).
In the case of `COc1ccccc1-c1cccc2c1OC(CN)C2` (racemic) (as salt: hydrochloride) [Example 59, (±)-1-[7-(2-methoxyphenyl)-2,3-dihydro-1-benzofuran-2-yl]methanamine], the melting point is reported as greater than 250 °C.
Work on `NCC1Cc2cccc(-c3ccsc3)c2O1` (racemic) (as salt: hydrochloride) [Example 44, (±)-1-(7-thien-3-yl-2,3-dihydro-1-benzofuran-2-yl)methanamine] yielded a melting point greater than 200 °C.
In the case of `NCC1Cc2cc(Cl)cc(-c3cccc(Cl)c3)c2O1` (racemic) (as salt: hydrochloride) [Example 89, (±)-1-[5-chloro-7-(3-chlorophenyl)-2,3-dihydro-1-benzofuran-2-yl]methanamine], the melting point is reported as 195 °C (dec.).
With `NCC1Cc2cccc(-c3cc(C(F)(F)F)cc(C(F)(F)F)c3)c2O1` (racemic) (as salt: hydrochloride) [Example 32, (±)-1-{7-[3,5-bis(trifluoromethyl)phenyl]-2,3-dihydro-1-benzofuran-2-yl}methanamine] the melting point was 174 to 175 °C (dec.).

Source: patent US7435837B2, “Dihydrobenzofuranyl alkanamine derivatives and methods for using same” (Wyeth, priority 2003, dated 2008)
